Read-outs that look alike come from different tables or passages of the source. Square brackets hold non-standard residues; d marks the D form. Ends that are not written are not given here. Peptide text beside a SMILES is read from it. Cit = NC(=O)NCCC[C@H](N)C(=O)O
Legend:
HLA-DRB1*01:01 = biological target: T1, HLA-DRB1*01:01 (Homo sapiens, UniProt P01903+P01911, A100R/D57E/F55L/F60I/F76Y/I96L/L162R/M171V/P40L/Q125E/R42F/V115G/Y59C); assay: HLA class II peptide binding, inhibition of radiolabeled peptide binding to purified MHC
T1 construct: EBV transformed homozygous cell lines were used as sources of MHC molecules; endogenous in cells; host or cells: EBV transformed homozygous cell lines

HLA-DRB1*04:01 = biological target: T2, HLA-DRB1*04:01 (Homo sapiens, UniProt P01903+P01911, A100K/A169T/F76Y/I96L/K127E/L162R/M171V/N62H/P40V/Q125Y/R42H/S133A/S149N/S66Y/V115G/V209L/W38E); assay: as above
T2 construct: EBV transformed homozygous cell lines were used as sources of MHC molecules; endogenous in cells; host or cells: EBV transformed homozygous cell lines

[1] = citrullinated 15-mer (X), purified MHC, inhibition of radiolabeled peptide binding, dash = IC50 >40,000 nM, read-out: DRB1*01:01 binding capacity, Cit peptide (IC50 nM)
[2] = citrullinated 15-mer (X), purified MHC, inhibition of radiolabeled peptide binding, dash = IC50 >40,000 nM, read-out: DRB1*04:01 binding capacity, Cit peptide (IC50 nM)
[3] = wild-type (unmodified Arg) 15-mer peptide, purified HLA-DRB1*01:01, read-out: DRB1*01:01 binding capacity, WT peptide (IC50 nM)
[4] = wild-type (unmodified Arg) 15-mer peptide, purified HLA-DRB1*04:01, read-out: DRB1*04:01 binding capacity, WT peptide (IC50 nM)
[5] = read-out: DRB1*01:01 binding capacity, WT peptide (IC50 nM)
[6] = read-out: DRB1*04:01 binding capacity, WT peptide (IC50 nM)

| Compound | IC50 (HLA-DRB1*01:01; [3]) [nM] | IC50 (HLA-DRB1*04:01; [4]) [nM] | IC50 (HLA-DRB1*01:01; [5]) [nM] | IC50 (HLA-DRB1*04:01; [6]) [nM] | other results |
| --- | --- | --- | --- | --- | --- |
| CSCC[C@H](NC(=O)[C@H](CCCNC(N)=O)NC(=O)[C@H](CCCNC(=N)N)NC(=O)[C@@H](N)Cc1ccc(O)cc1)C(=O)N[C@@H](Cc1ccccc1)C(=O)NCC(=O)NCC(=O)N1CCC[C@H]1C(=O)NCC(=O)N[C@H](C(=O)N[C@@H](C)C(=O)N[C@@H](CO)C(=O)N[C@@H](CCCNC(=N)N)C(=O)N1CCC[C@H]1C(=O)N[C@@H](CO)C(=O)O)[C@@H](C)O [YRXMFGGPGTASRPS] (H-YR[Cit]MFGGPGTASRPS-OH) | – | – | – | – | IC50 (HLA-DRB1*01:01; [1]): 512 nM; IC50 (HLA-DRB1*04:01; [2]): 15800 nM |
| CSCC[C@H](NC(=O)[C@H](CCCNC(=N)N)NC(=O)[C@H](CCCNC(N)=O)NC(=O)[C@@H](N)Cc1ccc(O)cc1)C(=O)N[C@@H](Cc1ccccc1)C(=O)NCC(=O)NCC(=O)N1CCC[C@H]1C(=O)NCC(=O)N[C@H](C(=O)N[C@@H](C)C(=O)N[C@@H](CO)C(=O)N[C@@H](CCCNC(=N)N)C(=O)N1CCC[C@H]1C(=O)N[C@@H](CO)C(=O)O)[C@@H](C)O [YXRMFGGPGTASRPS] (H-Y[Cit]RMFGGPGTASRPS-OH) | – | – | – | – | IC50 (HLA-DRB1*01:01; [1]): 252 nM; IC50 (HLA-DRB1*04:01; [2]): 27400 nM |
| AAGVKGDRGETGAVG [Collagen 1051 WT] | 1150 | 25200 | – | – | – |
| AANRNNDALRQAKQE [Vimentin 301 WT] | – | – | > 40000 | > 40000 | – |
| ADLSEAANRNNDALR [Vimentin 296 WT] | – | – | 4500 | 13900 | – |
| AGEPGERGLKGHRGF [Collagen 1121 WT] | 85 | > 40000 | – | – | – |
| ANYQDTIGRLQDEIQ [Vimentin 356 WT] | 625 | 11500 | – | – | – |
| ARGAQGPPGATGFPG [Collagen 886 WT] | 32200 | > 40000 | – | – | – |
| ASRPSSSRSYVTTST [Vimentin 21 WT] | – | – | 7580 | 1030 | – |
| DGLAGPKGAPGERGP [Collagen 521 WT] | 2240 | 36900 | – | – | – |
| DIMRLREKLQEEMLQ [Vimentin 181 WT] | – | – | 852 | > 40000 | – |
| DNASLARLDLERKVE [Vimentin 211 WT] | – | – | 7850 | 18800 | – |
| DNLAEDIMRLREKLQ [Vimentin 176 WT] | – | – | 4570 | > 40000 | – |
| DRGDVGEKGPEGAPG [Collagen 766 WT] | 729 | 21600 | – | – | – |
| EEEMRELRRQVDQLT [Vimentin 151 WT] | – | – | 468 | 4350 | – |
| EEMLQREEAENTLQS [Vimentin 191 WT] | – | – | 704 | 11900 | – |
| EIATYRKLLEGEESR [Vimentin 396 WT] | 52 | 3520 | – | – | – |
| ERGLKGHRGFTGLQG [Collagen 1126 WT] | 29 | > 40000 | – | – | – |
| ERKVESLQEEIAFLK [Vimentin 221 WT] | – | – | 103 | > 40000 | – |
| FKNTRTNEKVELQEL [Vimentin 96 WT] | – | – | 4450 | 1790 | – |
| FRQDVDNASLARLDL [Vimentin 206 WT] | – | – | 5260 | 144 | – |
| FSLADAINTEFKNTR [Vimentin 86 WT] | – | – | 68 | 12000 | – |
| GAQGLQGPRGLPGTP [Collagen 711 WT] | 352 | > 40000 | – | – | – |
| GDRGEAGAQGPMGPS [Collagen 1086 WT] | 9550 | > 40000 | – | – | – |
| GEESRISLPLPNFSS [Vimentin 406 WT] | 527 | 7570 | – | – | – |
| GGPGTASRPSSSRSY [Vimentin 16 WT] | – | – | 5230 | 39500 | – |
| GIAGAPGFPGPRGPP [Collagen 426 WT] | 239 | > 40000 | – | – | – |
| GIVGLPGQRGERGFP [Collagen 981 WT] | 6.4 | 2450 | – | – | – |

Continued, in another order:

| IC50 (HLA-DRB1*01:01; [3]) [nM] | IC50 (HLA-DRB1*04:01; [4]) [nM] | IC50 (HLA-DRB1*01:01; [5]) [nM] | IC50 (HLA-DRB1*04:01; [6]) [nM] | Compound | other results |
| --- | --- | --- | --- | --- | --- |
| – | – | 1330 | 1340 | AINTEFKNTRTNEKV [Vimentin 91 WT] | – |
| – | – | 6310 | 17200 | ARLDLERKVESLQEE [Vimentin 216 WT] | – |
| 39900 | 18000 | – | – | DALKGTNESLERQMR [Vimentin 331 WT] | – |
| 26700 | 27400 | – | – | DGPKGARGDSGPPGR [Collagen 926 WT] | – |
| – | – | 10 | 6370 | DVRQQYESVAAKNLQ [Vimentin 271 WT] | – |
| – | – | 568 | 5240 | ELRRQVDQLTNDKAR [Vimentin 156 WT] | – |
| > 40000 | > 40000 | – | – | ENGSPGPMGPRGLPG [Collagen 316 WT] | – |
| 1280 | > 40000 | – | – | ERGFPGLPGPSGEPG [Collagen 991 WT] | – |
| 1610 | > 40000 | – | – | ERGRTGPAGAAGARG [Collagen 331 WT] | – |
| 11100 | 912 | – | – | ERQMREMEENFAVEA [Vimentin 341 WT] | – |
| 611 | 564 | – | – | FAVEAANYQDTIGRL [Vimentin 351 WT] | – |
| > 40000 | > 40000 | – | – | GADGPPGRDGAAGVK [Collagen 1041 WT] | – |
| > 40000 | > 40000 | – | – | GAEGPPGPQGLAGQR [Collagen 966 WT] | – |
| 0.77 | 335 | – | – | GHRGFTGLQGLPGPP [Collagen 1131 WT] | – |
